Values quoted from earlier work, collected in patent US8546322B2, “Inhibitors of intracellular urokinase plasminogen activator and methods of use thereof” (The Regents of the University of California, priority 2007, dated 2013).

What was measured:
[1] = phase II; cited from earlier work
[2] = system: rat breast cancer; settings: in vivo; cited from earlier work

## CCOC(=O)N1CCN(C(=O)[C@H](Cc2cccc(C(=N)N)c2)NS(=O)(=O)c2c(C(C)C)cc(C(C)C)cc2C(C)C)CC1.Cl [WX-UK1]
[1]
  toxicity in clinical trials (in words): non-toxic
[2]
  metastasis and primary tumour growth (in words): suppresses rat breast cancer metastasis
